Reference: patent US20240216344A1, “THIAZOLIDINEDIONE ANALOGS FOR THE TREATMENT OF NAFLD AND METABOLIC DISEASES” (Cirius Therapeutics, Inc., priority 2019, published 2024)

Columns and labels:
[1] = system: 3-dimensional bioprinted human liver organoids; assay: 3-dimensional bioprinted human liver organoids, fibrosis by collagen staining; format: cell-based; conditions: added to the tissue medium
[2] = system: cell functions and key regulatory proteins; assay: Impact of MSDC-0602K vs overnutrition on cell functions and key regulatory proteins (Table 1)
[3] = system: subjects with biopsy proven NASH with fibrosis and no cirrhosis; assay: EMMINENCE Phase 2b trial, interim analysis at six months; format: in vivo, human; conditions: for Peripheral edema present: 6 months
Text: Detailed Description: This is a randomized, double-blinded study of three doses of MSDC-0602K or placebo given orally once daily to subjects with biopsy proven NASH with fibrosis and no cirrhosis. Visits to the clinic will be at baseline, 1, 2, 3, 6, 9, and 12 months, with one 2-week follow-up visit. Safety will be assessed by monitoring of vital signs, 12 lead electrocardiogram (ECG), physical examinations, safety labs, and adverse events (AEs).
An interim analysis of the EMMINENCE Phase 2b trial was conducted in the first 328 subjects who reached their six-month follow-up visit. […] In the two highest dose groups, at least 50% of patients with elevated baseline Alanine transaminase (ALT) or Aspartate Aminotransferase (AST) improved into the normal range at six months, as shown in Table 3.
The subjects included in this interim analysis had significant liver disease, as established by liver biopsy, with an average NAS at baseline of 5.3. […] Overall, baseline characteristics were well-balanced across treatment groups.

COc1cccc(C(=O)COc2ccc(CC3SC(=O)NC3=O)cc2)c1 (stereo not shown) [MSDC-0602K]
effects of the nutrients (stellate cell activation, fibrosis by collagen staining) [1]: both prevented and reversed
Fatty acid oxidation (burning fat) [2]: Increased
HIF1α [2]: Decreased
Inflammation (ballooning due to injury) [2]: Decreased
Insulin sensitivity (cellular response to insulin) [2]: Increased
PPARγ, PPARα [2]: Increased
SREBP [2]: Decreased
de novo lipid synthesis (making new fat) [2]: Decreased
mTORC1 [2]: Decreased
Peripheral edema present ([3]; 62.5 mg): 7.80%
Percentage of patients with high baseline ALT who returned to normal range ([3]; 62.5 mg, six months): 29%
Percentage of patients with high baseline AST who returned to normal range ([3]; 62.5 mg, six months): 36%
Placebo-corrected reduction in ALT ([3]; 125 mg cohort, six months): 14.3 U/L
Placebo-corrected reduction in AST ([3]; 125 mg cohort, six months): 7.9 U/L
Peripheral edema present ([3]; 125 mg): 13.50%
Percentage of patients with high baseline ALT who returned to normal range ([3]; 125 mg, six months): 60%
Percentage of patients with high baseline AST who returned to normal range ([3]; 125 mg, six months): 50%
Placebo-corrected reduction in ALT ([3]; 250 mg cohort, six months): 10.6 U/L
Placebo-corrected reduction in AST ([3]; 250 mg cohort, six months, not significant): 4 U/L
Peripheral edema present ([3]; 250 mg): 11.10%
Percentage of patients with high baseline ALT who returned to normal range ([3]; 250 mg, six months): 56%
Percentage of patients with high baseline AST who returned to normal range ([3]; 250 mg, six months): 52%
fasting glucose, HbA1c, insulin levels, and HOMA-IR ([3]; all subjects, 125 mg and 250 mg doses, six months): statistically significant improvements
Adiponectin ([3]; all treatment cohorts, dose dependent, six months): increased significantly
overall adverse event rates ([3]; placebo and all doses): similar
effect on lipids ([3]; six months): neutral effect
patients with elevated baseline ALT or AST improved into the normal range ([3]; two highest dose groups, six months): at least 50%
C-Reactive Protein levels ([3]; two lowest doses, six months): decrease
